Assay [1] in a line: Inhibition of Abeta peptide production in HEK293 cells overexpressing APP751swe. The format is functional, cell-based. As to conditions: Homo sapiens.
The target in the next assay is Beta-secretase 1 (Homo sapiens, UniProt P56817). As to the kind of experiment: Inhibition of recombinant human BACE1 in FRET assay.
Sequence of Beta-secretase 1 (P56817 whole entry): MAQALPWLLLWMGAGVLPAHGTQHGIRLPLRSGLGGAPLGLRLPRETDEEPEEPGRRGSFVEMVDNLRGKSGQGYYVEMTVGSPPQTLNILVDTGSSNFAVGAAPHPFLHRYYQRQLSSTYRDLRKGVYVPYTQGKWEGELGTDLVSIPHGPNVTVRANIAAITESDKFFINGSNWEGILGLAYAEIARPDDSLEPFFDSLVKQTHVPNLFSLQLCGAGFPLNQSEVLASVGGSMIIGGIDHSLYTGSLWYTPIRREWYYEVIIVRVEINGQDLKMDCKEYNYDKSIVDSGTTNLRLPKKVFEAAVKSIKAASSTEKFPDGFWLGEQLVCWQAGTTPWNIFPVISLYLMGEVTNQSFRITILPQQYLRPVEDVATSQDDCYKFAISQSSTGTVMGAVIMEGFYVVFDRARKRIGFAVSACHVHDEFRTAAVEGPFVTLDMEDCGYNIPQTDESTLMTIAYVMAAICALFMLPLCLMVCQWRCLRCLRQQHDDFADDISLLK

A word on the IC50: it is the midpoint of a concentration-inhibition curve. For `CC(C)[C@H](NC(=O)CC[C@H](O)[C@@H]1CCCCCC[C@H](NC(=O)OC(C)(C)C)C(=O)N[C@@H](C)C(=O)N1)C(=O)NCc1ccccc1`, the IC50 in assay [1] is > 100 µM; on Beta-secretase 1, 9.7 µM.

With `CC(C)[C@H](NC(=O)OC(C)(C)C)C(=O)N[C@@H](C)C(=O)N[C@@H](Cc1ccccc1)[C@@H](O)C[C@@H](C)C(=O)N[C@H](C(=O)NCc1ccncc1)C(C)C`, half-maximal inhibition in assay [1] (IC50) was put at 2.83 µM.

The values above are taken from ChEMBL document CHEMBL1148555, “Macrocyclic peptidomimetic inhibitors of beta-secretase (BACE): first X-ray structure of a macrocyclic peptidomimetic-BACE complex” (Bioorg Med Chem Lett, 2006).
